Source: patent US20090176732A1, “PROTECTED NUCLEOTIDE ANALOGS” (Alios BioPharma Inc., priority 2007, published 2009)

Key:
AVA5 cell line = conditions: concentration giving 2-fold depression of neutral red dye uptake vs untreated cultures; daily treatment for three days, assessed at 72 hours; ± S.D.
Procedure: Compounds were added to dividing cultures daily for three days. […] Intracellular HCV RNA levels and cytotoxicity were assessed 72 hours after treatment.
Quadruplicate cultures for HCV RNA levels and cytoxicity (on 96-well plates) were used. A total of 12 untreated control cultures, and triplicate cultures treated with α-interferon (concentrations of: 10 IU/mL, 3.3 IU/mL, 1.1 IU/mL and 0.37 IU/mL) and 2′C-Me-C (concentrations of: 30 μM, 10 μM, 3.3 μM and 1.1 μM) served as assay controls.
HCV RNA levels in the treated cultures are expressed as a percentage of the mean levels of RNA detected in untreated cultures. The absorbance of the internalized dye at […] (A510) was used for quantitative analysis.
Compounds were dissolved in 100% tissue culture grade DMSO (Sigma, Inc.) at 10 mM. Aliquots of test compounds sufficient for one daily treatment were made in individual tubes and all material was stored at −20° C. For the test, the compounds were suspended into culture medium at room temperature, and immediately added to the cell cultures. Compounds were analyzed separately in two groups with separate assay controls. The concentrations of the test compounds were run at concentrations of 10 μM, 3.3 μM, 1.1 μM and 0.37 μM.

[1] = tested on: HCV RNA-replicating cell line, AVA5 (genotype 1b, subgenomic replicon); assay: HCV replicon assay, intracellular HCV RNA levels by blot hybridization; format: cell-based, HCV genotype 1b; conditions: for EC50: concentration giving 2-fold depression of HCV RNA vs untreated cultures; for EC50 / EC90: normalized to β-actin RNA, daily treatment for three days, assessed at 72 hours, ± S.D.; for EC90: concentration giving 10-fold depression of HCV RNA vs untreated cultures; for Antiviral activity (in words): summary of the Table 1 results in the text
Procedure: Antiviral activity of the test compounds was assessed (Okuse, et al., Antivir. Res. (2005) 65:23) in the stably HCV RNA-replicating cell line, AVA5 (genotype 1b, subgenomic replicon, Blight, et al., Sci. (2000) 290:1972). Compounds were added to dividing cultures daily for three days. […] Intracellular HCV RNA levels and cytotoxicity were assessed 72 hours after treatment.
Intracellular HCV RNA levels were measured using a conventional blot hybridization method, in which HCV RNA levels are normalized to the levels of β-actin RNA in each individual culture (Okuse, et al., Antivir. Res. (2005) 65:23). Cytotoxicity was measured using an established neutral red dye uptake assay (Korba and Gerin, Antivir. Res. (1992) 19:55; Okuse, et al., Antivir. Res. (2005) 65:23). HCV RNA levels in the treated cultures are expressed as a percentage of the mean levels of RNA detected in untreated cultures. The absorbance of the internalized dye at 510 nM (A510) was used for quantitative analysis.
Values presented (±standard deviations [S.D.]) were calculated by linear regression analysis using data combined from all treated cultures. S.D. was calculated using the standard error of regression generated from the linear regression analyses (QuattroPro™).

Structure (SMILES) | CC50 (AVA5 cell line) | EC50 [1] | EC90 [1] | Antiviral activity (in words) [1]
COC(=O)[C@H](C)NP(=O)(OC[C@H]1O[C@@H](n2cnc(C(N)=O)n2)[C@H](O)[C@@H]1O)Oc1ccccc1 (some centres unmarked) [Compound 12] | > 100 µM | > 100 µM | > 100 µM | inactive
CCOC(=O)C(COC(C)=O)(COP(=O)(OC[C@H]1O[C@@H](n2cnc(C(N)=O)n2)[C@H](O)[C@@H]1O)OCC(COC(C)=O)(C(=O)OCC)C(=O)OCC)C(=O)OCC [Compound 14, Ribavirin 5′-bis[3-acetyloxy-2,2-bis(ethoxycarbonyl)propyl]phosphate] | 9.7 ± 0.2 µM | 1.6 ± 0.2 µM | 4.4 ± 0.4 µM | markedly more active compared to compound 12
